The source of these data is publication PMC10709440, “High-throughput ligand profile characterization in novel cell lines expressing seven heterologous insect olfactory receptors for the detection of volatile plant biomarkers” (Scientific Reports, 2023).

One experiment concerns the target T1, Drosophila OR47a (Drosophila melanogaster, UniProt P81921).
T1 construct: expressed in transfected cells
T1 sequence (P81921 1-385): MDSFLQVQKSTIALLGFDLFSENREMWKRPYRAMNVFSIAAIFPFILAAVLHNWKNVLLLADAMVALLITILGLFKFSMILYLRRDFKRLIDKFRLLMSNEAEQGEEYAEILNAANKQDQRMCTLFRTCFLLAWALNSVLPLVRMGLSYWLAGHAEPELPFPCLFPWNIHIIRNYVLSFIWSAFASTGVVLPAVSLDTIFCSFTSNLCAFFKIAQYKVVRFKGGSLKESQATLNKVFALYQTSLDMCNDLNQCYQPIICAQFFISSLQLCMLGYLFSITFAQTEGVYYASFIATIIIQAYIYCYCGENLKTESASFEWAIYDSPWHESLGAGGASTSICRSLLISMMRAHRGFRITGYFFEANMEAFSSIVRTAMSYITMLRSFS
T1 sequence (Q9VNB5 1-486 partner): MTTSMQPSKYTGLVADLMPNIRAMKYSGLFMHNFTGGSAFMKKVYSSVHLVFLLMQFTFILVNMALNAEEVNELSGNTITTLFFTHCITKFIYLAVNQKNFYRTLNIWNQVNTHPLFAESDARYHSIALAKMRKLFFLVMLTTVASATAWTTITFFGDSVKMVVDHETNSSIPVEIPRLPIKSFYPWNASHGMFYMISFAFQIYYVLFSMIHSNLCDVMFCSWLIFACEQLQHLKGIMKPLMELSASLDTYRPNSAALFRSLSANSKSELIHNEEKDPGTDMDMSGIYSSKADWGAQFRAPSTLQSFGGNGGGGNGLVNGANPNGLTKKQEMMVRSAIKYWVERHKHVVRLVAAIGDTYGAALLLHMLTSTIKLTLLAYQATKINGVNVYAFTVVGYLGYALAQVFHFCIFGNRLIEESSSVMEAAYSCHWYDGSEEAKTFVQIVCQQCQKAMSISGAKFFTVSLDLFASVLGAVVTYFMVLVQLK
The experiment is described as follows: Calcium ion fluorescence (GCaMP6) assay, OR47a stable HEK293 cell line. Format: cell-based. The note with it: for Average response: mean of biological replicates. The method in brief: (§1)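 Responses are VUAA1-normalized ΔF: each VOC-evoked calcium signal, (FMAX−F0)/F0 over 30 s after injection, divided by the same line's mean 50 µM VUAA1 response. Cells were doxycycline-induced HEK293 with GCaMP6 and the cognate Drosophila OR, in HEPES buffer pH 7.3; ligands tested 0.01–100 μM.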

The target in another experiment is T2, Drosophila OR10a (Drosophila melanogaster, UniProt Q9VYZ1).
T2 construct: expressed in transfected cells
T2 sequence (Q9VYZ1 1-406): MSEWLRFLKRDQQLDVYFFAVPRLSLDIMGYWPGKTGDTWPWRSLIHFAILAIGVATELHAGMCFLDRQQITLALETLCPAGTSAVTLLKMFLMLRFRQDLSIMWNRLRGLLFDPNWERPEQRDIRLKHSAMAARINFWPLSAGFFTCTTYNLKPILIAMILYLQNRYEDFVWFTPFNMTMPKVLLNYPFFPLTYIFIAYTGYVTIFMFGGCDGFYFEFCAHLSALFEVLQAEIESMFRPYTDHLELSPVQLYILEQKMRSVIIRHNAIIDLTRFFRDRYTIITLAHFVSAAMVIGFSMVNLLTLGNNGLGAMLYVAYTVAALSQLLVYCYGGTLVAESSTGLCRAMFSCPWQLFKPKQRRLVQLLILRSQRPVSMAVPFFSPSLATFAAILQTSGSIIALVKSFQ
T2 sequence (Q9VNB5 1-486 partner): T1 sequence (Q9VNB5 1-486 partner)
The experiment is described as follows: Calcium ion fluorescence (GCaMP6) assay, OR10a stable HEK293 cell line. Format: cell-based. The note with it: for DF norm AVERAGE OR10a: threshold 0.05, below shown as 0. The method, boiled down:
as §1

The mark [1] stands for this setting: HEK293, read-out: OR47a Average response (VUAA1-normalized).
Setting [2] is: HEK293, read-out: OR47a response (VUAA1-normalized response).
The mark [3] stands for this setting: OR47a cell line, odorant cc. 1 µM.
The mark [4] stands for this setting: OR47a cell line, odorant cc. 10 µM.
Where [5] appears, read: OR47a cell line, odorant cc. 100 µM.

Where two headings read alike, the source gives them in different places.

Regarding `CCCC(O)CC` (stereo not drawn) [3-hexanol], the activation at 1 µM on Drosophila OR47a (setting [1]) stood at 0%; on Drosophila OR47a (setting [2]), 0%; on Drosophila OR10a (HEK293, 1 μM VOC, 50 μM VUAA1 = 1, responses not exceeding 0.05 considered 0, read-out: OR10a Average response (VUAA1-normalized)), 16%; on Drosophila OR10a (HEK293, read-out: OR10a response (VUAA1-normalized response), VOC concentration 1 μM), 16%. In addition, the activation at 10 µM on Drosophila OR47a (setting [1]) is 0%; at Drosophila OR47a (setting [2]), 0%; at Drosophila OR10a (HEK293, 10 μM VOC, 50 μM VUAA1 = 1, responses not exceeding 0.05 considered 0, read-out: OR10a Average response (VUAA1-normalized)), 2.57%; on Drosophila OR10a (HEK293, read-out: OR10a response (VUAA1-normalized response), VOC concentration 10 μM) it was 0%. For the same molecule, the activation at 100 µM is 11% at Drosophila OR47a (setting [1]); 11% on Drosophila OR47a (setting [2]); 6% at Drosophila OR10a (HEK293, 100 μM VOC, 50 μM VUAA1 = 1, responses not exceeding 0.05 considered 0, read-out: OR10a Average response (VUAA1-normalized)); 6% on Drosophila OR10a (HEK293, read-out: OR10a response (VUAA1-normalized response), VOC concentration 100 μM). Moreover, the Average response at Drosophila OR47a (setting [3]) amounted to 0.00; at Drosophila OR47a (setting [4]) it was 0.00; on Drosophila OR47a (setting [5]) it was 0.11. The “DF norm AVERAGE OR47a” value at Drosophila OR47a (concentration 1, normalized fluorescence change, values below 0.05 threshold given as 0) is reported as 0; at Drosophila OR47a (concentration 10, normalized fluorescence change, values below 0.05 threshold given as 0) it was 0; at Drosophila OR47a (concentration 100, normalized fluorescence change, values below 0.05 threshold given as 0) it was 0.1087.

Turning to `CC(C)=CCC/C(C)=C/CC/C(C)=C/CO` [e,e-farnesol], the Average response at Drosophila OR47a (setting [3]) amounted to 0.03; at Drosophila OR47a (setting [4]), 0.00; at Drosophila OR47a (setting [5]) it was 0.032. The “OR47a response (VUAA1-normalized response)” value on Drosophila OR47a (VOC concentration 1 μM), on Drosophila OR47a (VOC concentration 10 μM) and on Drosophila OR47a (VOC concentration 100 μM) was 0.00 throughout. Also, the “DF norm AVERAGE OR47a” value is recorded as 0 at Drosophila OR47a (ligand concentration 1 (unit not given), threshold 0.05, below shown as 0); 0 on Drosophila OR47a (ligand concentration 10 (unit not given), threshold 0.05, below shown as 0); 0 at Drosophila OR47a (ligand concentration 100 (unit not given), threshold 0.05, below shown as 0). Moreover, the “OR10a Average response (VUAA1-normalized)” value amounted to 0.034 on Drosophila OR10a (1 μM VOC, 50 μM VUAA1 = 1, responses not exceeding 0.05 considered 0); 0.0633 at Drosophila OR10a (10 μM VOC, 50 μM VUAA1 = 1, responses not exceeding 0.05 considered 0); 0.0174 at Drosophila OR10a (100 μM VOC, 50 μM VUAA1 = 1, responses not exceeding 0.05 considered 0). In addition, the “OR10a response (VUAA1-normalized response)” value worked out at 0.00 at Drosophila OR10a (VOC concentration 1 μM), 0.0633 at Drosophila OR10a (VOC concentration 10 μM) and 0.00 on Drosophila OR10a (VOC concentration 100 μM). The “DF norm AVERAGE OR10a” value was 0 on Drosophila OR10a (ligand concentration 1 (unit not given)), 0.06329 at Drosophila OR10a (ligand concentration 10 (unit not given)) and 0 on Drosophila OR10a (ligand concentration 100 (unit not given)).

As for `CC/C=C\CCOC(C)=O` [Z-3-hexenyl acetate], the “OR47a response (VUAA1-normalized) at 1 μM” value on Drosophila OR47a (OR47a cell line, VOC concentration 1 μM) is given as 0.35. On Drosophila OR47a (OR47a cell line, VOC concentration 10 μM), the “OR47a response (VUAA1-normalized) at 10 μM” value worked out at 0.67. The “OR47a response (VUAA1-normalized) at 100 μM” value on Drosophila OR47a (OR47a cell line, VOC concentration 100 μM) was 0.76. For the same molecule, the “OR10a response (VUAA1-normalized) at 1 μM” value at Drosophila OR10a (OR10a cell line, VOC concentration 1 μM) was 0.14. Further, at Drosophila OR10a (OR10a cell line, VOC concentration 10 μM), the “OR10a response (VUAA1-normalized) at 10 μM” value is given as 0.00. In addition, on Drosophila OR10a (OR10a cell line, VOC concentration 100 μM), the “OR10a response (VUAA1-normalized) at 100 μM” value was determined as 0.00.
